test system: L-selectin on neutrophils; type: cell-based, human; conditions: not given

| Molecule | approximate concentration for 100% LOSS of L-selectin from cell surface | effective concentrations for induction of L-selectin shedding | induction of L-selectin shedding (in words) | cell surface L-selectin released |
| --- | --- | --- | --- | --- |
| [O-2].[O-2].[O-2].[Sb+3].[Sb+3] [Antimony (Sb203)] | ~50 µM | – | – | – |
| O=[As]O[As]=O (stereo not drawn) [Arsenic (As203)] | ~50 µM | – | – | – |
| NC(=O)N=NC(N)=O [Azodicarbonamide] | ~1 mM- | – | – | – |
| [Cl][Cd][Cl] [Cadmium (CdC12)] | ~1000 µM | – | – | – |
| CN(C)CCCN1c2ccccc2Sc2ccc(Cl)cc21 [Chlorpromazine] | ~50 mM- | 10 to 50 µM | – | – |
| Clc1ccc(C(c2ccc(Cl)cc2)C(Cl)(Cl)Cl)cc1 [DDT] | ~50 uM- | – | – | – |
| O=S(=O)(O)c1cc(N=C=S)ccc1C=Cc1ccc(N=C=S)cc1S(=O)(=O)O [DIDS] | ~200 uM- | – | – | – |
| O=C(O)c1cc(SSc2ccc([N+](=O)[O-])c(C(=O)O)c2)ccc1[N+](=O)[O-] [DTNB, 5′,5′-dithio-bis(2-nitrobenzoic acid)] | ~1 mM- | – | – | – |
| CN(C)C(=O)/N=N/C(=O)N(C)C [Diamide] | ~1 mM- | – | – | – |
| Cc1c(CBr)n2c(CBr)c(C)c(=O)n2c1=O [Dibromobimane bBBr, Dibromobimane] | ~100 um- | – | – | – |
| C1COCCO1 [Dioxane] | – | – | itself induces L-selectin release | – |
| CCN(CC)C(=S)SSC(=S)N(CC)CC [Disulfiram (Antabuse), Disulfiram] | ~50 uM- | – | – | – |
| OO [Hydrogen peroxide] | ~150 uM- | – | – | – |
| NC(=O)CI [Iodoacetamide] | ~10 mM- | – | – | – |
| O=C(O)CI [Iodoacetate IA, Iodoacetate] | ~300 uM- | – | – | – |
| O=Ic1ccccc1C(=O)O [Iodosobenzoate] | ~1 mM- | – | – | – |
| COc1ccc(C(c2ccc(OC)cc2)C(Cl)(Cl)Cl)cc1 [Methoxychlor] | ~50 uM- | – | – | – |
| Cc1c(C)n2c(CBr)c(C)c(=O)n2c1=O [Monobromobimane mBBr, Monobromobimane] | ~100 uM- | – | – | – |
| CCN1C(=O)C=CC1=O [N-ethylmaleimide] | ~250 uM- | – | – | – |
| COc1cc(-c2ccc(-n3nc(-c4ccccc4)n[n+]3-c3ccc([N+](=O)[O-])cc3)c(OC)c2)ccc1-n1nc(-c2ccccc2)n[n+]1-c1ccc([N+](=O)[O-])cc1 [Nitroblue tetrazolium] | ~100 uM- | – | – | – |
| O=S(=O)(F)Cc1ccccc1 [PMSF] | ~1 mM- | – | – | – |
| CSCC[C@H](NC=O)C(=O)N[C@@H](CC(C)C)C(=O)N[C@@H](Cc1ccccc1)C(=O)O [fMLP, formyl-methionyl-leucyl-phenylalanine] | – | – | – | at least 90% |
| Protein Disulfide Isomerase | ~20 ug/ml- | – | – | – |
| Thimerosal | ~500 um- | – | – | – |
| Thioredoxin | ~50 ug/ml- | – | – | – |

test system: L-selectin on lymphocytes; type: cell-based, human; conditions: not given

| Molecule | time for lymphocytes to shed L-selectin | response of lymphocytes (L-selectin shedding) |
| --- | --- | --- |
| CCCCCCCCCCCCCC(=O)O[C@@H]1[C@@H](C)[C@@]2(O)[C@@H](C=C(CO)C[C@]3(O)C(=O)C(C)=C[C@@H]23)[C@@H]2C(C)(C)[C@]12OC(C)=O [PMA] | ~30 min | – |
| CSCC[C@H](NC=O)C(=O)N[C@@H](CC(C)C)C(=O)N[C@@H](Cc1ccccc1)C(=O)O [fMLP, formyl-methionyl-leucyl-phenylalanine] | – | do not respond |

test system: Mac-1 (CD18/CD11b) on neutrophils; type: cell-based, human; conditions: not given

| Molecule | increase of cell surface Mac-1 expression compared to the ice control |
| --- | --- |
| CSCC[C@H](NC=O)C(=O)N[C@@H](CC(C)C)C(=O)N[C@@H](Cc1ccccc1)C(=O)O [fMLP, formyl-methionyl-leucyl-phenylalanine] | 3-10 fold |

test system: HIV; conditions: chlorpromazine: at the concentration of Table I; cited from earlier work

| Molecule | HIV infectivity |
| --- | --- |
| NC(=O)N=NC(N)=O [Azodicarbonamide] | blocks HIV infectivity, |
